# Measured values published in patent USRE48461E1, “Modulation of androgen receptor expression” (Ionis Pharmaceuticals, Inc., priority 2012, dated 2021).
# l = locked nucleic acid (LNA); d = 2'-deoxy (DNA)
# Columns and labels:
# Type in all cases: cell-based, human
# total AR mRNA = experiment: Total (full-length) AR mRNA in C4-2B MR cells, free uptake; conditions: free uptake, 24 hrs
# Protocol: Cells were plated at a density of 40,000 cells per well in 96-well plates and cultured in RPMI1640 medium with 10% fetal bovine serum. […] ISIS 549372, ISIS 549458, ISIS 549434, and ISIS 554221 were each added at 0.04 μM, 0.20 μM, 1.00 μM, and 5.00 μM concentrations of antisense oligonucleotide to culture media for free uptake by the cells. […] After a treatment period of 24 hrs, total AR mRNA levels were measured by quantitative real-time PCR using primer probe set RTS3559.
# KLK3 mRNA = KLK3 mRNA (AR target gene) in C4-2B MR cells
# KLK2 mRNA = KLK2 mRNA (AR target gene) in C4-2B MR cells
# C4-2B MR cells = experiment: Proliferation of MDV3100-resistant C4-2B cells (CellTiter 96); conditions: 6 days
# Protocol: ISIS 549372, ISIS 549434, ISIS 549458, and ISIS 554221 were each added to the culture media at 0.04 μM, 0.20 μM, 1.00 μM, and 5.00 μM concentration of antisense oligonucleotide. ISIS 347526 was included as a negative control. After a treatment period of 6 days, the proliferative capacity of the cancer cells was measured with using CellTiter 96® AQueous One Solution Cell Proliferation kit (Promega), following the manufacturer's instructions. Results are presented in Table 41 as percent inhibition of proliferation, relative to non-treated cells.
# AR mRNA [1] = experiment: AR mRNA levels in LMR20 cells (with/without DHT or R1881); conditions: LMR20 cells; for AR mRNA levels (% baseline value) after treatment with DHT: DHT 10 nM 72 hrs; for AR mRNA levels (% baseline value) after treatment with R1881: R1881 10 nM 72 hrs; for AR mRNA levels (% baseline value) of cells without AR agonist treatment: no AR agonist
# Protocol: (§1) LMR20 cells were plated at 1,500 cells per well in phenol red-free medium with CSS.
# [2] = test system: prostate-specific antigen (PSA) mRNA; experiment: PSA mRNA levels in LMR20 cells; conditions: LMR20 cells; for PSA mRNA levels (% baseline value) after treatment with DHT: DHT 10 nM 72 hrs; for PSA mRNA levels (% baseline value) after treatment with R1881: R1881 10 nM 72 hrs; for PSA mRNA levels (% baseline value) of cells without AR agonist treatment: no AR agonist
# Protocol: LMR20 cells were plated at 1,500 cells per well in phenol red-free medium with CSS. […] Results are presented in Tables 43-45 as mRNA levels expressed as a percentage of the baseline values. mRNA levels may be lowered or increased after treatment.
# TMPRSS2 mRNA = TMPRSS2 mRNA levels in LMR20 cells; conditions: LMR20 cells; for TMPRSS2 mRNA levels (% baseline value) after treatment with DHT: DHT 10 nM 72 hrs; for TMPRSS2 mRNA levels (% baseline value) after treatment with R1881: R1881 10 nM 72 hrs; for TMPRSS2 mRNA levels (% baseline value) of cells without AR agonist treatment: no AR agonist
# Protocol: as §1
# AR mRNA [3] = experiment: AR mRNA in LnCaP cells by free uptake (hAR_LTS00943); conditions: 24 hrs
# Protocol: Cells were plated at a concentration of 4,000 cells/well in 96-well plates. ISIS oligonucleotides, specified in Table 68, were added individually at 0.02 μM, 0.10 μM, 0.50 μM, 2.50 μM, or 10.00 μM. After an incubation period of 24 hrs, mRNA levels were measured using primer probe set hAR_LTS00943.
substance,measurement,setting,value
"554221 (ACCAAGTTTCTTCAGC; sugars from the 5' end l3 d10 l3, all phosphorothioate, methylation of C not given here) [compound 554221]",Percent inhibition of full-length AR mRNA in C4-2B MR cells,total AR mRNA; 0.04 μM,0%
same,Percent inhibition of full-length AR mRNA in C4-2B MR cells,total AR mRNA; 0.20 μM,0%
same,Percent inhibition of full-length AR mRNA in C4-2B MR cells,total AR mRNA; 1.00 μM,0%
same,Percent inhibition of full-length AR mRNA in C4-2B MR cells,total AR mRNA; 5.00 μM,23%
same,Percent inhibition of KLK3 mRNA in C4-2B MR cells,KLK3 mRNA; 0.04 μM,0%
same,Percent inhibition of KLK3 mRNA in C4-2B MR cells,KLK3 mRNA; 0.20 μM,0%
same,Percent inhibition of KLK3 mRNA in C4-2B MR cells,KLK3 mRNA; 1.00 μM,47%
same,Percent inhibition of KLK3 mRNA in C4-2B MR cells,KLK3 mRNA; 5.00 μM,56%
same,Percent inhibition of KLK2 mRNA in C4-2B MR cells,KLK2 mRNA; 0.04 μM,24%
same,Percent inhibition of KLK2 mRNA in C4-2B MR cells,KLK2 mRNA; 0.20 μM,25%
same,Percent inhibition of KLK2 mRNA in C4-2B MR cells,KLK2 mRNA; 1.00 μM,56%
same,Percent inhibition of KLK2 mRNA in C4-2B MR cells,KLK2 mRNA; 5.00 μM,66%
same,Percent inhibition of C4-2B MR cell proliferation,C4-2B MR cells; 0.04 μM,11%
same,Percent inhibition of C4-2B MR cell proliferation,C4-2B MR cells; 0.20 μM,12%
same,Percent inhibition of C4-2B MR cell proliferation,C4-2B MR cells; 1.00 μM,0%
same,Percent inhibition of C4-2B MR cell proliferation,C4-2B MR cells; 5.00 μM,24%
same,AR mRNA levels (% baseline value) after treatment with DHT,AR mRNA [1]; ASO 0.04 μM,137 % baseline value
same,AR mRNA levels (% baseline value) after treatment with DHT,AR mRNA [1]; ASO 0.20 μM,135 % baseline value
same,AR mRNA levels (% baseline value) after treatment with DHT,AR mRNA [1]; ASO 1.0 μM,136 % baseline value
same,AR mRNA levels (% baseline value) after treatment with DHT,AR mRNA [1]; ASO 5.0 μM,100 % baseline value
same,AR mRNA levels (% baseline value) after treatment with R1881,AR mRNA [1]; ASO 0.04 μM,131 % baseline value
same,AR mRNA levels (% baseline value) after treatment with R1881,AR mRNA [1]; ASO 0.20 μM,133 % baseline value
same,AR mRNA levels (% baseline value) after treatment with R1881,AR mRNA [1]; ASO 1.0 μM,124 % baseline value
same,AR mRNA levels (% baseline value) after treatment with R1881,AR mRNA [1]; ASO 5.0 μM,99 % baseline value
same,AR mRNA levels (% baseline value) of cells without AR agonist treatment,AR mRNA [1]; ASO 0.04 μM,124 % baseline value
same,AR mRNA levels (% baseline value) of cells without AR agonist treatment,AR mRNA [1]; ASO 0.20 μM,140 % baseline value
same,AR mRNA levels (% baseline value) of cells without AR agonist treatment,AR mRNA [1]; ASO 1.0 μM,132 % baseline value
same,AR mRNA levels (% baseline value) of cells without AR agonist treatment,AR mRNA [1]; ASO 5.0 μM,98 % baseline value
same,PSA mRNA levels (% baseline value) after treatment with DHT,[2]; ASO 0.04 μM,97 % baseline value
same,PSA mRNA levels (% baseline value) after treatment with DHT,[2]; ASO 0.20 μM,86 % baseline value
same,PSA mRNA levels (% baseline value) after treatment with DHT,[2]; ASO 1.0 μM,64 % baseline value
same,PSA mRNA levels (% baseline value) after treatment with DHT,[2]; ASO 5.0 μM,64 % baseline value
same,PSA mRNA levels (% baseline value) after treatment with R1881,[2]; ASO 0.04 μM,100 % baseline value
same,PSA mRNA levels (% baseline value) after treatment with R1881,[2]; ASO 0.20 μM,93 % baseline value
same,PSA mRNA levels (% baseline value) after treatment with R1881,[2]; ASO 1.0 μM,80 % baseline value
same,PSA mRNA levels (% baseline value) after treatment with R1881,[2]; ASO 5.0 μM,57 % baseline value
same,PSA mRNA levels (% baseline value) of cells without AR agonist treatment,[2]; ASO 0.04 μM,106 % baseline value
same,PSA mRNA levels (% baseline value) of cells without AR agonist treatment,[2]; ASO 0.20 μM,118 % baseline value
same,PSA mRNA levels (% baseline value) of cells without AR agonist treatment,[2]; ASO 1.0 μM,58 % baseline value
same,PSA mRNA levels (% baseline value) of cells without AR agonist treatment,[2]; ASO 5.0 μM,87 % baseline value
same,TMPRSS2 mRNA levels (% baseline value) after treatment with DHT,TMPRSS2 mRNA; ASO 0.04 μM,121 % baseline value
same,TMPRSS2 mRNA levels (% baseline value) after treatment with DHT,TMPRSS2 mRNA; ASO 0.20 μM,118 % baseline value
same,TMPRSS2 mRNA levels (% baseline value) after treatment with DHT,TMPRSS2 mRNA; ASO 1.0 μM,122 % baseline value
same,TMPRSS2 mRNA levels (% baseline value) after treatment with DHT,TMPRSS2 mRNA; ASO 5.0 μM,114 % baseline value
same,TMPRSS2 mRNA levels (% baseline value) after treatment with R1881,TMPRSS2 mRNA; ASO 0.04 μM,136 % baseline value
same,TMPRSS2 mRNA levels (% baseline value) after treatment with R1881,TMPRSS2 mRNA; ASO 0.20 μM,134 % baseline value
same,TMPRSS2 mRNA levels (% baseline value) after treatment with R1881,TMPRSS2 mRNA; ASO 1.0 μM,125 % baseline value
same,TMPRSS2 mRNA levels (% baseline value) after treatment with R1881,TMPRSS2 mRNA; ASO 5.0 μM,122 % baseline value
same,TMPRSS2 mRNA levels (% baseline value) of cells without AR agonist treatment,TMPRSS2 mRNA; ASO 0.04 μM,95 % baseline value
same,TMPRSS2 mRNA levels (% baseline value) of cells without AR agonist treatment,TMPRSS2 mRNA; ASO 0.20 μM,117 % baseline value
same,TMPRSS2 mRNA levels (% baseline value) of cells without AR agonist treatment,TMPRSS2 mRNA; ASO 1.0 μM,77 % baseline value
same,TMPRSS2 mRNA levels (% baseline value) of cells without AR agonist treatment,TMPRSS2 mRNA; ASO 5.0 μM,73 % baseline value
same,Percent inhibition of AR mRNA,AR mRNA [3]; 0.02 μM,0%
same,Percent inhibition of AR mRNA,AR mRNA [3]; 0.1 μM,0%
same,Percent inhibition of AR mRNA,AR mRNA [3]; 0.5 μM,0%
same,Percent inhibition of AR mRNA,AR mRNA [3]; 10 μM,17%
